{"source": "patent US20210253705A1", "about": "“METHODS AND AGENTS FOR TREATING ORGAN INJURY AND TRANSPLANT REJECTION” (The Regents of the University of California, priority 2020, published 2021)", "test_system": "BALB/c airway allografts in C57BL/6 recipients", "assay": "Heterotopic subcutaneous tracheal/airway transplantation model of allograft rejection", "assay_type": "in vivo, mice", "conditions": "recipients treated with CCR4 inhibitor, day 14", "method": "Each mouse was subcutaneously transplanted with two tracheas. Small molecule CCR4 inhibitor or antagonist C 021 dihydrochloride (Cat #3581, Tocris Bio-Techne, Minneapolis, Minn., USA) was resuspended in sterile DMSO to 100 mg/ml and diluted further in 1×PBS to be administered as intraperitoneal (i.p.) injections at 50 mg/kg daily starting at day −1 prior to tracheal transplantation until day 14 when allografts were harvested for rejection analysis.\nHistopathological Evaluation of Airway and Lung Transplants. Airway and lung graft tissues were fixed overnight in 4% paraformaldehyde, processed, paraffin-embedded, sectioned and stained with hematoxylin and eosin (H&E) or Elastin Trichrome. Three independent blinded reviewers calculated the degree of airway injury using a histological scoring system. All qualitative histological changes were evaluated and the total murine rejection score was calculated based on four pathological criteria: (a) airway lining epithelial loss, (b) deposition of extracellular matrix (ECM), (c) leukocyte infiltration, and (d) luminal fibro-obliteration due to granulation tissue formation and/or fibrosis. Each process was scored on a scale of 0-4 (0=normal, 1=mild, 2=moderate, 3=severe and 4=very severe) and added together for a total rejection score. […] Images were taken by Zeiss Axioskop 2 plus microscope and analyzed with AxioVision 4.2 imaging software. […]", "data": [{"smiles": "COc1cc2nc(N3CCC(N4CCCCC4)CC3)nc(NC3CCCCCC3)c2cc1OC.Cl.Cl", "note": "[C 021 dihydrochloride, 2-[1,4′-bipiperidin]-1′-yl-N-cycloheptyl-6,7-dimethoxy-4-quinazolinamine dihydrochloride]", "values": [{"measurement": "H&E histology of airway allografts", "result": "virtually normal epithelium and minimal matrix deposition without fibro-obliteration"}]}]}
